Numbered stars: 1 amine (or outer) side, 2 acyl side, 3 side chain; on linkers, the order of the positions; unused ones are H or OH. Bridge positions count the residues as written; N and C are the ends. Square brackets hold non-standard residues; d marks the D form. Peptide text beside a SMILES is read from it. * marks the point of attachment. X4 = O=C(O)CN1CCN(CC(=O)O)CCN(CC(=O)N[C@H]2CC[C@H](CC(=O)*)CC2)CCN(CC(=O)O)CC1; Ala(piperidin-4-yl) = O=C([C@H](CC1CCN([*:3])CC1)N[*:1])[*:2]; DOTA = O=C(O)CN1CCN(CC(=O)O)CCN(CC(=O)*)CCN(CC(=O)O)CC1; Trp(7-Me) = Cc1cccc2c(C[C@H](N)C(=O)O)c[nH]c12; 2Nal = N[C@@H](Cc1ccc2ccccc2c1)C(=O)O; tBuAla = CC(C)(C)C[C@H](N)C(=O)O; 3Pal = N[C@@H](Cc1cccnc1)C(=O)O; 4Pal = N[C@@H](Cc1ccncc1)C(=O)O; Chg = N[C@H](C(=O)O)C1CCCCC1; Tle = CC(C)(C)[C@H](N)C(=O)O
Target: T1, human DLL3 (Homo sapiens, UniProt Q9NYJ7)
T1 sequence (Q9NYJ7 27-618): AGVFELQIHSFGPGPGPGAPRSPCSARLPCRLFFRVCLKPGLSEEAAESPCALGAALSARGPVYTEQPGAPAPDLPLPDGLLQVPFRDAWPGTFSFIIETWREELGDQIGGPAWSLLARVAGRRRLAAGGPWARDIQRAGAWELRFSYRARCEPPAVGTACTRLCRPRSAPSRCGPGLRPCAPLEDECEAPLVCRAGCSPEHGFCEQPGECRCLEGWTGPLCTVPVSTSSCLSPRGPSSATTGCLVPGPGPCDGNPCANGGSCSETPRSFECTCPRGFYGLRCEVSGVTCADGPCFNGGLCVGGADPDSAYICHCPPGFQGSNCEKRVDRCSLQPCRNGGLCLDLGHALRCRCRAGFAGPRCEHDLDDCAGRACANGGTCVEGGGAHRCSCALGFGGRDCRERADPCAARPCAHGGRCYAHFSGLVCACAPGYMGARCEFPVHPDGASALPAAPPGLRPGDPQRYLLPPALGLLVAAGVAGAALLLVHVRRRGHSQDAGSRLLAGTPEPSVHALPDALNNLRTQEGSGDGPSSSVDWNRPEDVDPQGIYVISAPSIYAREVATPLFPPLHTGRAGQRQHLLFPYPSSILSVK
Assay: Affinity determination by Surface Plasmon Resonance (SPR)
Assay type: binding
Settings: 25° C., biotinylated human DLL3 immobilized on streptavidin sensor chip, 1:1 binding model; read-out: SPR KD
In short: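 Biotinylated human DLL3 was captured on a streptavidin chip with a reference surface. Compounds at several concentrations were injected at 100 μL/minute in phosphate buffer (137 mM NaCl, 2.7 mM KCl, 0.05% P20, 2% DMSO). Affinity and kinetics came from 1:1 model fits of the sensorgrams.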

Kd [nM]	Compound
< 1	CC(=O)N[C@@H](Cc1c[nH]c2ccccc12)C(=O)N[C@H](C(=O)N[C@@H](CC(C)(C)C)C(=O)N[C@H]1CSSC[C@@H](C(=O)N[C@@H](Cc2c[nH]c3ccccc23)C(=O)N2CCC[C@H]2C(=O)N[C@H](CCCCNC(=O)CN2CCN(CC(=O)O)CCN(CC(=O)O)CCN(CC(=O)O)CC2)C(N)=O)NC(=O)[C@H](CC(=O)O)NC(=O)[C@H](Cc2cnc[nH]2)NC(=O)[C@H](Cc2ccc3ccccc3c2)NC(=O)[C@H](CC(N)=O)NC(=O)[C@H](CC2CCNCC2)NC1=O)[C@@H](C)O [compound 282, Ac-W-T-(t-Bu-Ala)-C(3)-[3-(4-piperidinyl)-Ala]-N-(2Nal)-H-D-C(3)-W-P-[D-Lys(DOTA)]-NH2] (Ac-WT[tBuAla]C[Ala(piperidin-4-yl)]N[2Nal]HDCWP[dK](DOTA)-NH2; disulfide 4-10)
< 1	CC(=O)N[C@@H](Cc1c[nH]c2ccccc12)C(=O)N[C@H](C(=O)N[C@H](C(=O)N[C@H]1CSSC[C@@H](C(=O)N[C@@H](Cc2c[nH]c3ccccc23)C(=O)N2CCC[C@H]2C(=O)N[C@H](CCCCNC(=O)C[C@H]2CC[C@H](NC(=O)CN3CCN(CC(=O)O)CCN(CC(=O)O)CCN(CC(=O)O)CC3)CC2)C(N)=O)NC(=O)[C@H](CC(=O)O)NC(=O)[C@H](Cc2c[nH]cn2)NC(=O)[C@H](Cc2ccc3ccccc3c2)NC(=O)[C@H](CC(N)=O)NC(=O)[C@H](CC2CCNCC2)NC1=O)C1CCCCC1)[C@@H](C)O [compound 286, Ac-W-T-(Chg)-C(3)-[3-(4-piperidinyl)-Ala]-N-(2Nal)-H-D-C(3)-W-P-[D-Lys(Chx-DOTA)]-NH2] (Ac-WT[Chg]C[Ala(piperidin-4-yl)]N[2Nal]HDCWP[dK](X4)-NH2; disulfide 4-10)
< 1	CC(=O)N[C@@H](Cc1c[nH]c2ccccc12)C(=O)N[C@H](C(=O)N[C@H](C(=O)N[C@H]1CSSC[C@@H](C(=O)N[C@@H](Cc2c[nH]c3ccccc23)C(=O)N2CCC[C@H]2C(=O)N[C@H](CCCCNC(=O)CN2CCN(CC(=O)O)CCN(CC(=O)O)CCN(CC(=O)O)CC2)C(N)=O)NC(=O)[C@H](CC(=O)O)NC(=O)[C@H](Cc2cnc[nH]2)NC(=O)[C@H](Cc2ccc3ccccc3c2)NC(=O)[C@H](CC(N)=O)NC(=O)[C@H](Cc2cccnc2)NC1=O)C1CCCCC1)[C@@H](C)O [compound 287, Ac-W-T-(Chg)-C(3)-(3Pya)-N-(2Nal)-H-D-C(3)-W-P-[D-Lys(DOTA)]-NH2] (Ac-WT[Chg]C[3Pal]N[2Nal]HDCWP[dK](DOTA)-NH2; disulfide 4-10)
< 1	CC(=O)N[C@@H](Cc1c[nH]c2ccccc12)C(=O)N[C@H](C(=O)N[C@H](C(=O)N[C@H]1CSSC[C@@H](C(=O)N[C@@H](Cc2c[nH]c3ccccc23)C(=O)N2CCC[C@H]2C(=O)N[C@H](CCCCNC(=O)CN2CCN(CC(=O)O)CCN(CC(=O)O)CCN(CC(=O)O)CC2)C(N)=O)NC(=O)[C@H](CC(=O)O)NC(=O)[C@H](Cc2cnc[nH]2)NC(=O)[C@H](Cc2ccc3ccccc3c2)NC(=O)[C@H](CC(N)=O)NC(=O)[C@H](Cc2ccncc2)NC1=O)C1CCCCC1)[C@@H](C)O [compound 290, Ac-W-T-(Chg)-C(3)-(4Pya)-N-(2Nal)-H-D-C(3)-W-P-[D-Lys(DOTA)]-NH2] (Ac-WT[Chg]C[4Pal]N[2Nal]HDCWP[dK](DOTA)-NH2; disulfide 4-10)

The next lines start with the compound.

Compound	Kd [nM]
CC(=O)N[C@@H](Cc1c[nH]c2ccccc12)C(=O)N[C@H](C(=O)N[C@H](C(=O)N[C@H]1CSSC[C@@H](C(=O)N[C@@H](Cc2c[nH]c3ccccc23)C(=O)N2CCC[C@H]2C(=O)N[C@H](CCCCNC(=O)CN2CCN(CC(=O)O)CCN(CC(=O)O)CCN(CC(=O)O)CC2)C(N)=O)NC(=O)[C@H](CC(=O)O)NC(=O)[C@H](Cc2cnc[nH]2)NC(=O)[C@H](Cc2ccc3ccccc3c2)NC(=O)[C@H](CC(N)=O)NC(=O)[C@H](CC2CCNCC2)NC1=O)C(C)(C)C)[C@@H](C)O [compound 281, Ac-W-T-(Tbg)-C(3)-[3-(4-piperidinyl)-Ala]-N-(2Nal)-H-D-C(3)-W-P-[D-Lys(DOTA)]-NH2] (Ac-WT[Tle]C[Ala(piperidin-4-yl)]N[2Nal]HDCWP[dK](DOTA)-NH2; disulfide 4-10)	< 1
CC(=O)N[C@@H](Cc1c[nH]c2ccccc12)C(=O)N[C@H](C(=O)N[C@H](C(=O)N[C@H]1CSSC[C@@H](C(=O)N[C@@H](Cc2c[nH]c3ccccc23)C(=O)N2CCC[C@H]2C(=O)N[C@H](CCCCNC(=O)CN2CCN(CC(=O)O)CCN(CC(=O)O)CCN(CC(=O)O)CC2)C(N)=O)NC(=O)[C@H](CC(N)=O)NC(=O)[C@H](Cc2cnc[nH]2)NC(=O)[C@H](Cc2ccc3ccccc3c2)NC(=O)[C@H](CC(N)=O)NC(=O)[C@H](CC2CCNCC2)NC1=O)C1CCCCC1)[C@@H](C)O [compound 283, Ac-W-T-(Chg)-C(3)-[3-(4-piperidinyl)-Ala]-N-(2Nal)-H-(Asn)-C(3)-W-P-[D-Lys(DOTA)]-NH2] (Ac-WT[Chg]C[Ala(piperidin-4-yl)]N[2Nal]HNCWP[dK](DOTA)-NH2; disulfide 4-10)	< 1
CC(=O)N[C@@H](Cc1c[nH]c2ccccc12)C(=O)N[C@H](C(=O)N[C@H](C(=O)N[C@H]1CSSC[C@@H](C(=O)N[C@@H](Cc2c[nH]c3ccccc23)C(=O)N2CCC[C@H]2C(=O)N[C@H](CCCCNC(=O)CN2CCN(CC(=O)O)CCN(CC(=O)O)CCN(CC(=O)O)CC2)C(N)=O)NC(=O)[C@H](C)NC(=O)[C@H](Cc2cnc[nH]2)NC(=O)[C@H](Cc2ccc3ccccc3c2)NC(=O)[C@H](CC(N)=O)NC(=O)[C@H](CC2CCNCC2)NC1=O)C1CCCCC1)[C@@H](C)O [compound 284, Ac-W-T-(Chg)-C(3)-[3-(4-piperidinyl)-Ala]-N-(2Nal)-H-(Ala)-C(3)-W-P-[D-Lys(DOTA)]-NH2] (Ac-WT[Chg]C[Ala(piperidin-4-yl)]N[2Nal]HACWP[dK](DOTA)-NH2; disulfide 4-10)	< 1
CC(=O)N[C@@H](Cc1c[nH]c2ccccc12)C(=O)N[C@H](C(=O)N[C@H](C(=O)N[C@H]1CSSC[C@@H](C(=O)N[C@@H](Cc2c[nH]c3ccccc23)C(=O)N2CCC[C@H]2C(=O)N[C@H](CCCCNC(=O)CN2CCN(CC(=O)O)CCN(CC(=O)O)CCN(CC(=O)O)CC2)C(N)=O)NC(=O)[C@H]([C@@H](C)O)NC(=O)[C@H](Cc2cnc[nH]2)NC(=O)[C@H](Cc2ccc3ccccc3c2)NC(=O)[C@H](CC(N)=O)NC(=O)[C@H](CC2CCNCC2)NC1=O)C1CCCCC1)[C@@H](C)O [compound 285, Ac-W-T-(Chg)-C(3)-[3-(4-piperidinyl)-Ala]-N-(2Nal)-H-(Thr)-C(3)-W-P-[D-Lys(DOTA)]-NH2] (Ac-WT[Chg]C[Ala(piperidin-4-yl)]N[2Nal]HTCWP[dK](DOTA)-NH2; disulfide 4-10)	< 1
CC(=O)N[C@@H](Cc1c[nH]c2ccccc12)C(=O)N[C@H](C(=O)N[C@H](C(=O)N[C@H]1CSSC[C@@H](C(=O)N[C@@H](Cc2c[nH]c3ccccc23)C(=O)N2CCC[C@H]2C(=O)N[C@H](CCCCNC(=O)CN2CCN(CC(=O)O)CCN(CC(=O)O)CCN(CC(=O)O)CC2)C(N)=O)NC(=O)[C@H](CC(=O)O)NC(=O)[C@H](Cc2cnc[nH]2)NC(=O)[C@H](Cc2ccc3ccccc3c2)NC(=O)[C@H](CC(N)=O)NC(=O)[C@H](Cc2cccnc2)NC1=O)C(C)(C)C)[C@@H](C)O [compound 288, Ac-W-T-(Tbg)-C(3)-(3Pya)-N-(2Nal)-H-D-C(3)-W-P-[D-Lys(DOTA)]-NH2] (Ac-WT[Tle]C[3Pal]N[2Nal]HDCWP[dK](DOTA)-NH2; disulfide 4-10)	< 1
CC(=O)N[C@@H](Cc1c[nH]c2ccccc12)C(=O)N[C@H](C(=O)N[C@@H](CC(C)(C)C)C(=O)N[C@H]1CSSC[C@@H](C(=O)N[C@@H](Cc2c[nH]c3ccccc23)C(=O)N2CCC[C@H]2C(=O)N[C@H](CCCCNC(=O)CN2CCN(CC(=O)O)CCN(CC(=O)O)CCN(CC(=O)O)CC2)C(N)=O)NC(=O)[C@H](CC(=O)O)NC(=O)[C@H](Cc2cnc[nH]2)NC(=O)[C@H](Cc2ccc3ccccc3c2)NC(=O)[C@H](CC(N)=O)NC(=O)[C@H](Cc2cccnc2)NC1=O)[C@@H](C)O [compound 289, Ac-W-T-(t-Bu-Ala)-C(3)-(3Pya)-N-(2Nal)-H-D-C(3)-W-P-[D-Lys(DOTA)]-NH2] (Ac-WT[tBuAla]C[3Pal]N[2Nal]HDCWP[dK](DOTA)-NH2; disulfide 4-10)	< 1
CC[C@H](C)[C@H](NC(=O)[C@@H](NC(=O)[C@H](Cc1c[nH]c2ccccc12)NC(C)=O)[C@@H](C)O)C(=O)N[C@H]1CSSC[C@@H](C(=O)N[C@@H](Cc2c[nH]c3ccccc23)C(=O)N2CCC[C@H]2C(=O)N[C@H](CCCCNC(=O)CN2CCN(CC(=O)O)CCN(CC(=O)O)CCN(CC(=O)O)CC2)C(N)=O)NC(=O)[C@H](CC(=O)O)NC(=O)[C@H](Cc2cnc[nH]2)NC(=O)[C@H](Cc2c[nH]c3c(C)cccc23)NC(=O)[C@H](CC(N)=O)NC(=O)[C@H](CC(N)=O)NC1=O [compound 295, Ac-W-T-I-C(3)-N-N-(7-Me-W)-H-D-C(3)-W-P-[D-Lys(DOTA)]-NH2] (Ac-WTICNN[Trp(7-Me)]HDCWP[dK](DOTA)-NH2; disulfide 4-10)	< 1

Reference: patent publication US20250011368A1, “DLL3 TARGETING PEPTIDES AND CONSTRUCTS THEREOF” (MARIANA ONCOLOGY INC., priority 2023, published 2025)
